Laboratory results as given in US20240174690A1, “ANNULATED 2-AMINO-3-CYANO THIOPHENES AND DERIVATIVES FOR THE TREATMENT OF CANCER” (BOEHRINGER INGELHEIM INTERNATIONAL GMBH, priority 2021, published 2024).

Assays:
[1] = Caco-2 assay (permeability PappAB, PappBA, efflux ratio); format: in vitro ADME; conditions: human, Caco-2; efflux ratio PappBA/PappAB; 10 μM test compound, pH 7.4; read-out: Caco ER
In short: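 Confluent Caco-2 monolayers on filter supports, 0.25% BSA in both donor and receiver buffer; transport measured a-b and b-a. After 25-30 min preincubation at 37 °C, samples at 0, 30, 60, 90 min quantified by HPLC/MS/MS. Papp from receiver amount per time, filter area and initial donor concentration; efflux ratio = PappBA/PappAB.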

SAS cells = assay: SAS CTG proliferation assay (120 h) (HNSCC, wt amplified); format: cell-based
In short: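 SAS cells plated at 300 per well in DMEM:F12 with 10% FCS and left overnight, then given compounds acoustically. After 120 h exposure, viability read by CellTiter-Glo as percent of DMSO control. IC50 from four-parameter non-linear regression.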

KRAS (G12D)::SOS1 = KRAS (G12D)::SOS1 (Homo sapiens (Human), UniProt P01116, G12D); assay: KRAS::SOS1 AlphaScreen binding assay, KRAS G12D
In short: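 AlphaScreen measurement of compound disruption of biotinylated, GDP-loaded KRAS 1-169 (10 nM; G12C 7.5 nM) binding to GST-SOS1 564-1049 (5 nM with G12D/G12C, 10 nM otherwise), with 10 μM GDP in PBS/0.1% BSA/0.05% Tween 20. Timing was 30 min compound preincubation, then 60 min with beads at room temperature; top concentration 100 μM, 4-parameter IC50.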

KRAS (G12D)::SOS1, sequence (P01116 other isoform, or with tags, fused parts or gaps G12D): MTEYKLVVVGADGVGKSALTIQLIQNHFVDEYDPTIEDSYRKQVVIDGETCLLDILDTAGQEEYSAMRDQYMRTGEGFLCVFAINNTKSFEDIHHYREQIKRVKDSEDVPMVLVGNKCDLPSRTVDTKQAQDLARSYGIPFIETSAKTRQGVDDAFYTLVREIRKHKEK

efflux ratio at 90 min, 10 μM [1] | IC50 (KRAS (G12D)::SOS1) | SMILES | IC50 (SAS cells)
2.2 | 1 nM | C[C@H](Oc1cc(-n2ccc(-c3cn([C@@H]4CCOC4)nn3)n2)nc(-c2noc3c2CCC[C@@]32CCCc3sc(N)c(C#N)c32)n1)[C@@H]1CCCN1C [II-211] | 17 nM
2.9 | 1 nM | C[C@H](Oc1cc(-n2ccc(-c3cn([C@H]4CCOC4)nn3)n2)nc(-c2noc3c2CCC[C@@]32CCCc3sc(N)c(C#N)c32)n1)[C@@H]1CCCN1C [II-212] | 19 nM
2.6 | 1 nM | C[C@H](Oc1cc(-n2ccc(-c3cn(CC4(C)COC4)nn3)n2)nc(-c2noc3c2CCC[C@@]32CCCc3sc(N)c(C#N)c32)n1)[C@@H]1CCCN1C [II-213] | 13 nM
